# Reference: patent publication US20070059704A1, “Detection system” (priority 2003, published 2007)
# System: J3130
# Experiment: Bioassay: induction of growth of drug-dependent femX null mutant J3130 by antibiotics applied on paper discs
# Format: cell-based, Streptomyces coelicolor
# Conditions: for induction of growth of J3130 around the paper disc: paper disc on MMT medium spread with J3130 spores, result in words
# Description: To see if growth of J3130 could be induced by control antibiotics known to target the cell envelope, spores of J3130 were spread on MMT medium (Kieser et al, 2000) and potential inducers were applied on paper discs to the freshly spread plates. […] None of the other antibiotics tested, including many cell wall-specific non-glycopeptide antibiotics, induced growth of J3130.
# In order to perform the assay of the invention, spores of J3130 are spread on MMT medium at concentration of approximately 5×10^6/12 cm^2 plate. Test compound is applied on paper discs to a number of freshly spread plates in parallel using a different concentration of the test compound in each plate.
compound,measurement,setting,value
N[C@H]1C(=O)N[C@@H]2Cc3ccc(c(Cl)c3)Oc3cc4cc(c3O)Oc3ccc(cc3Cl)[C@@H](O)[C@@H]3NC(=O)[C@H](NC(=O)[C@@H]4NC(=O)[C@@H](NC2=O)c2cc(O)cc(c2)Oc2cc1ccc2OS(=O)(=O)O)c1cc(Cl)c(O)c(c1)-c1c(O)cc(O)cc1[C@@H](C(=O)O)NC3=O [A47934],induction of growth of J3130 around the paper disc,,induced a halo of growth
CN[C@H](CC(C)C)C(=O)N[C@H]1C(=O)N[C@@H](CC(N)=O)C(=O)N[C@H]2C(=O)N[C@H]3C(=O)N[C@H](C(=O)N[C@H](C(=O)O)c4cc(O)cc(O)c4-c4cc3ccc4O)[C@H](O[C@H]3C[C@](C)(N)[C@@H](O)[C@H](C)O3)c3ccc(c(Cl)c3)Oc3cc2cc(c3O[C@@H]2O[C@H](CO)[C@@H](O)[C@H](O)[C@H]2O[C@H]2C[C@](C)(N)[C@@H](O)[C@H](C)O2)Oc2ccc(cc2Cl)[C@H]1O [Chloroeremomycin],induction of growth of J3130 around the paper disc,,induced a halo of growth
CN[C@H](CC(C)C)C(=O)N[C@H]1C(=O)N[C@@H](CC(N)=O)C(=O)N[C@H]2C(=O)N[C@H]3C(=O)N[C@H](C(=O)N[C@H](C(=O)O)c4cc(O)cc(O)c4-c4cc3ccc4O)[C@H](O)c3ccc(c(Cl)c3)Oc3cc2cc(c3O[C@@H]2O[C@H](CO)[C@@H](O)[C@H](O)[C@H]2O[C@H]2C[C@](C)(N)[C@H](O)[C@H](C)O2)Oc2ccc(cc2Cl)[C@H]1O [Vancomycin],amount that gives a positive reaction in the bioassay (initial assessment of sensitivity),"J3130 bioassay, two-fold dilution series",80 ng
same,induction of growth of J3130 around the paper disc,,induced a halo of growth
Ristocetin,induction of growth of J3130 around the paper disc,,induced a halo of growth
